Laboratory results taken from patent US20240415839A1, “Identification and Treatment of Cancers Associated with RASGRF1 Gene Fusions” (YALE UNIVERSITY, priority 2021, published 2024).
pIC50: −log10 of the molar value.

Columns and labels:
PaCaDD137 cells = assay: Cell viability (Cell Titer-Glo), PaCaDD137 cells; assay type: cell-based
Description: Cell Viability Assays and RASGRF1 knockdown. Ba/F3 cells or PaCaDD137 cells were seeded in 96-well microtiter plates. Drug or drug vehicle was added on the same day (for Ba/F3 cells) or 24 hours after seeding (for PaCaDD137 cells). […] Luminescence was measured with a Spectramax M3 plate reader (Molecular Devices). Data analysis was performed using GraphPad Prism software.

[1] = test system: Ba/F3 cells expressing OCLN-RASGRF1; assay: Cell viability (Cell Titer-Glo), Ba/F3 cells expressing OCLN-RASGRF1; assay type: cell-based
Description: Ba F3 Transformation Assays. Ba/F3 cells were maintained in RPMI 1640 (Gibco) with heat-inactivated 10% fetal bovine serum (Gibco) and penicillin (100 units/mL)/streptomycin (100 μg/mL; Gibco) and 1 ng/mL interleukin-3 (IL-3; Gibco). cDNAs (GFP or OCLN-RASGRF1) in pLX307 were introduced into Ba/F3 cells via lentiviral transduction with 8 μg/mL polybrene and centrifugation at 2250 rpm at 37 degrees C. for 30 minutes. 24 hours later, transduced cells were selected with 1 μg/mL puromycin for at least 5 days.
Cell Viability Assays and RASGRF1 knockdown. Ba/F3 cells or PaCaDD137 cells were seeded in 96-well microtiter plates. Drug or drug vehicle was added on the same day (for Ba/F3 cells) or 24 hours after seeding (for PaCaDD137 cells). Following 4-5 days of drug exposure, cell viability was determined using the Cell Titer-Glo luminescent assay (Promega) according to the manufacturer's instructions. Luminescence was measured with a Spectramax M3 plate reader (Molecular Devices). Data analysis was performed using GraphPad Prism software.

Row | pIC50 ([1]; Mus musculus, BaF3, 96 h, 4 days exposure, Cell Titer-Glo, read-out: half maximal inhibitory concentration (IC50), cell viability) | Compound | pIC50 (PaCaDD137 cells; 120 h, 5 days, Cell Titer-Glo) | activity of addition of pictilisib to trametinib compared to trametinib alone (PaCaDD137 cells; 100 or 500 nM pictilisib, 6 days) | sensitivity (cell viability) (PaCaDD137 cells; Cell Titer-Glo) | activity of addition of pictilisib to trametinib compared to trametinib alone ([1]; 100 or 500 nM pictilisib, 4 days) | sensitivity (cell viability) ([1]; 4 days, Cell Titer-Glo)
1 | ~9.82 | CC(=O)Nc1cccc(-n2c(=O)n(C3CC3)c(=O)c3c(Nc4ccc(I)cc4F)n(C)c(=O)c(C)c32)c1 [trametinib] | ~7.70 | – | – | – | –
2 | – | CS(=O)(=O)N1CCN(Cc2cc3nc(-c4cccc5[nH]ncc45)nc(N4CCOCC4)c3s2)CC1 [pictilisib] | – | only a modest increase in activity | not | only a modest increase in activity | only a modest increase in sensitivity
